Test results: article PMC11547576, “Identification of a New Promising BAG3 Modulator Featuring the Imidazopyridine Scaffold” (Molecules, 2024)

Target: T1, BAG3-BD (Homo sapiens, UniProt O95817)
T1 construct: the BAG3 domain (BAG3-BD) was procured from ARETA International S.r.l; purchased ARETA International S.r.l; (Gerenzano, Italy)
T1 sequence (O95817 421-498 limits assumed): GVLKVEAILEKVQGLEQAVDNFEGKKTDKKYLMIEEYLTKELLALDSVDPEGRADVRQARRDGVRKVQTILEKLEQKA
Test: SPR assay on BAG domain of BAG3 (BAG3-BD)
Type: binding
Settings: Biacore T200, 0 to 100 µM, 25 °C, 1:1 interaction model, read-out: BAG DOMAIN KD (µM) ± SD
Description: In this study, we employed SPR experiments to evaluate the interactions between synthesized compounds (1–14) and both the full-length BAG3 protein and its BAG domain. Only the compounds that successfully bound to the full-length BAG3 protein were tested for their interaction with the BAG domain. Protein immobilization was achieved using the amide coupling method, and the compounds were tested at ten different concentrations, ranging from 0 to 100 µM. A known binder of BAG3-BD, LK4 ((Z)-ethyl 2-(5-(3,4-dihydroxybenzylidene)-2,4-dioxothiazolidin-3yl)acetate), was used as a positive control. […] Compound 14 also bound the target but with slightly higher KD values, still within the micromolar range. The three identified compounds were further investigated to understand whether this binding induced an effect on BAG3 protein functions. The KD values reported in Table 1 for the known inhibitor LK4 differ from those in previous studies due to the use of a newer-generation instrument for the SPR experiments. The earlier experiments utilized the Biacore 3000, whereas the current study employed the Biacore T200. While ligand binding was confirmed in both sets of experiments, the slightly different KD values are attributed to the enhanced sensitivity of the Biacore T200.
Recombinant human BAG3 protein (Bcl2-associated athanogene 3) was sourced from Novus Biologicals (Littleton, CO, USA), while the BAG3 domain (BAG3-BD) was procured from ARETA International S.r.l. (Gerenzano, Italy). We utilized (Z)-ethyl 2-(5-(3,4-dihydroxybenzylidene)-2,4-dioxothiazolidin-3-yl)acetate (LK4), a known BAG3 inhibitor previously identified by our group. Surface Plasmon Resonance (SPR) spectroscopy was employed to assess the affinity of synthesized molecules for BAG3 and BAG-BD using a Biacore T200 optical biosensor equipped with CM5 sensor chips (Cytiva, Marlborough, MA, USA). BAG3 and BAG-BD were immobilized on the CM5 sensor chip using standard amine-coupling protocols. BAG3 protein (0.067 μg/μL in 10 mM CH3COONa, pH 4.5) was immobilized at a flow rate of 10 μL/min, resulting in a density of 14 kRU. The BAG3 domain (0.38 μg/μL in 10 mM CH3COONa, pH 4.5) was immobilized under similar conditions, achieving a density of 4 kRU. […]
Compounds 1–14 and LK4 were dissolved to 10 mM in 100% DMSO and then diluted 1:20 (v/v) in PBS-P buffer (0.2 M phosphate buffer, 27 mM KCl, 1.37 M NaCl, 0.5% surfactant P20) to achieve a final DMSO concentration of 5.0%. […] Changes in mass, reflected as resonance units (RU), were recorded to determine binding responses. KD values were calculated using Biaevaluation software 3.2 by globally fitting the double-referenced association and dissociation data to a 1:1 interaction model. […]

## CC(C)Nc1c(-c2ccccc2Br)nc2ccc(Cl)cn12 [Compound 10, 2-(2-bromophenyl)-6-chloro-N-isopropylimidazo[1,2-a]pyridin-3-amine]
  Kd: 15.7 ± 1.44 µM
